Activity calls are given as the source filed them.
Tests used:
Format in all cases: functional, organism-based
[1] = system: Bacillus cereus; assay: Antimicrobial activity against Bacillus cereus at 100 ug/disk
[2] = system: Bacillus subtilis; assay: Antimicrobial activity against Bacillus subtilis at 100 ug/disk
[3] = system: Saccharomyces cerevisiae; assay: Antimicrobial activity against Saccharomyces cerevisiae at 100 ug/disk

Measured: Activity

CC1(C)C[C@H]2[C@H](O)[C@]3(O)CO[C@]4(O)[C@@H](O)[C@@](C)([C@H]34)[C@H]2C1
inactive: [1] | [2] | [3]
